The values that follow come from US9896487B2, “Amyloidosis-inhibiting polypeptides and their use” (UNIVERSITY OF WASHINGTON THROUGH ITS CENTER FOR …, priority 2013, dated 2018).

Data set [1] deals with T1, TTR (Homo sapiens, UniProt P02766).
T1 construct: purchased Lee Biosolutions, St. Louis Mo; 496-11
In words: Immobilized designs on agarose beads, binding of TTR from solution (dot blot). To be noted: immobilized design; for binding of pre-incubated, toxic oligomer-containing TTR: TTR pre-incubated at low pH for 24 hrs.

The target in data set [2] is T2, Aβ (Homo sapiens, UniProt P05067).
T2 construct: Aβ (1-42) (AMYD-002; CPC Scientific, Sunnyvale Calif.); purchased CPC Scientific, Sunnyvale Calif; AMYD-002
T2 sequence (P05067 672-713 limits assumed): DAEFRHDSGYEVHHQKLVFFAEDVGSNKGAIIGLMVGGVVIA
The data set can be described thus: Immobilized designs on agarose beads, binding of Aβ from solution (dot blot). The note with it: immobilized design; for binding of pre-aggregated, toxic Aβ: Aβ pre-aggregated for 6 hrs.

A short description of data set [3]: Solubility and solution behaviour of the designs. The note with it: for solubility: aqueous solution-phase experiments.
The test system of data set [4] is human neuroblastoma cell line SH-SY5Y.
Method: The toxicity of aggregates was tested against the human neuroblastoma cell line SH-SY5Y in an MTT cell viability assay. The human neuroblastoma cell line SH-SY5Y (CRL-226; American Type Culture Collection) was grown in 75 cm^2 flasks in 1:1 DMEM/F12 (CellGro) supplemented with 10% FBS and 50 units/mL penicillin/50 μg/mL streptomycin (complete media), and incubated at 37° C. in humidified 5% CO2 environment. Cells were routinely passaged when they reached 90% confluence by addition of trypsin (Gibco) and replated at a ratio of 1:10 in complete media. Cells were plated to a density of 25,000 cells/well in a 96-well plate (100 μL/well) and allowed to attach overnight. The cell assay was performed as described by Reixach et al. (41).
Data set [5] addresses T3, transthyretin (TTR) (Homo sapiens, UniProt P02766).
T3 construct: purchased Lee Biosolutions, St. Louis Mo; 496-11
The data set can be described thus: TTR fibrillization assay (Congo red binding). Format: biochemical. To be noted: for inhibition of the remaining TTR aggregation: peptide added to 24-hour pre-incubated, toxic TTR, versus aggregation in the absence of inhibitor. The method, then:
Aliqouts of transthyretin (TTR) (496-11; Lee Biosolutions, St. Louis Mo.) were made from a 1 mg/mL solution 20 mM ammonium carbonate, pH 8. Aliquots were lyophilized and stored at −18° C. Prior to use, TTR was dissolved to 80 μM (monomer) in acetate buffer (50 mM potassium acetate, 100 mM potassium chloride pH 4.5) and sonicated for 10 minutes. The stock solution was centrifuged before use. Peptide designs were added to stock TTR to a final TTR concentration of 40 μM (monomer) in acetate buffer (pH 4.5) in 500 μL microcentrifuge tubes, which were incubated at 37° C. Periodically, samples were collected from the TTR:peptide mixture by briefly centrifuging, and then carefully pipetting the solution up and down prior to withdrawing a 10 μL sample and diluting it in 190 μL of 10 μM Congo red in an individual well of a 96-well assay plate. Each measurement was performed in triplicate. Absorbance measurements were taken at 477 and 540 nm. Relative Congo red binding was determined using the method of Klunk et al. using the relationship: rCb=(Abs540/25,295)−(Abs477/46,306) (40). All datapoints were normalized to the value recorded for TTR alone pH 4.5 at 48 hrs.
(§1) The “control” designs were tested as general inhibitors against the Amyloid β 1-42 peptide (Aβ) (panel A), the islet amylin polypeptide (IAPP, or amylin, which is implicated in type 2 diabetes) (panel B), and transthyretin (TTR) (panel C) amyloidosis (FIG. 6). […] As described in Example 1, a Thioflavin T (ThT) fluorescence assay was used to monitor Aβ and IAPP aggregation. A Congo Red dye-binding assay was used to monitor TTR fibrillization. For inhibition against Aβ, peptides were co-incubated at 4-fold excess of Aβ at RT in neutral pH buffer containing ThT. Note that the results for α1 differ somewhat from what are included in Example 1 because the assay conditions were altered slightly to slow the process down to favor oligomerization of Aβ (rather than fibril elongation) by lowering the temperature to 25° C. […] For inhibition against IAPP, peptides were co-incubated at 8-fold excess of IAPP at 37° C. in neutral pH buffer containing 20 μM ThT. For inhibition against TTR, peptides were co-incubated at 10-fold excess of monomeric TTR.

In data set [6] the target is T4, Aβ (1-42) (Homo sapiens, UniProt P05067).
T4 construct: Aβ (1-42) (AMYD-002; CPC Scientific, Sunnyvale Calif.); purchased CPC Scientific, Sunnyvale Calif; AMYD-002
T4 sequence (P05067 672-713 limits assumed): as above
The data set can be described thus: Aβ fibrillization assay (Thioflavin T fluorescence). The note with it: for time of aggregation at which the inhibitory effect is exerted: 10:1 excess, 37° C., ThT; for inhibition of Aβ fibril formation: co-incubated in 10:1 excess (100 μM peptide, 10 μM Aβ), pH 7.4, 37° C., measured at 22 hours; for inhibition of aggregation of pre-aggregated, toxic Aβ: designs added to Aβ pre-aggregated for 6 hrs, versus aggregation in the absence of inhibitor. Format: biochemical. The method, then:
Similarly, the designs were co-incubated (in 10:1 excess) with Aβ at pH 7.4 and followed fibril formation with ThT fluorescence changes upon binding at 37° C. (FIG. 2c). As observed for TTR, both α1 and α3 inhibited aggregation. Again α1 was more efficient, inhibiting approximately 87% of fibril formation compared with 66% for α3, when measured after the reaction stabilized at 22 hours. […] The 37° C. studies are reported here, though, for comparison with TTR, which aggregates very slowly at 25° C.
Aβ (1-42) (AMYD-002; CPC Scientific, Sunnyvale Calif.) was stored as 2 mg/mL stock in hexafluoroisopropanol (HFIP) at −18° C. Prior to use, the stock solution was thawed, an aliquot taken and the HFIP was removed under a gentle stream of air. A 1 mg/mL stock solution of Aβ was made in 5 mM NaOH and sonicated for 5-10 minutes. The stock was filtered through a 0.22 μm cellulose filter (Costar Spin-X; Corning Inc, NY). The concentration of stock Aβ was determined by first diluting the stock 1:50 in 5 mM NaOH then taking the absorbance at 220 nm (ε220=50,000 cm^−1 M^−1). Aliquots of the NaOH stock were placed in separate wells of a 96-well black-walled fluorescence plate (Nunc) and immediately diluted in PBS (11 mM phosphate) containing 20 μM Thioflavin T (ThT) to give 150 μL of 10 μM Aβ at pH 7.5. Peptide inhibitors were added directly to 10 μM Aβ samples from concentrated aqueous stocks. Covered plates were incubated at 37° C. and were periodically removed for fluorescence measurements. ThT fluorescence was measured at λex=450 nm and λem=480 nm using a Tecan Safire2 plate reader.
as §1

For data set [7], the system named is Aβ, IAPP and TTR amyloidosis / toxic oligomer. The data set can be described thus: Inhibitory activity summary: inhibition of aggregation and/or binding of toxic oligomer. The format is biochemical. Here is the method:
In addition, FIG. 5 contains ‘control’ designs aimed at reverse engineering the α1 design, which is presented in more detail in Example 3. […] These designs are both linear and cyclic peptides designed to be hairpins.
The “control” designs were tested as general inhibitors against the Amyloid β 1-42 peptide (Aβ) (panel A), the islet amylin polypeptide (IAPP, or amylin, which is implicated in type 2 diabetes) (panel B), and transthyretin (TTR) (panel C) amyloidosis (FIG. 6). […] As described in Example 1, a Thioflavin T (ThT) fluorescence assay was used to monitor Aβ and IAPP aggregation. A Congo Red dye-binding assay was used to monitor TTR fibrillization. For inhibition against Aβ, peptides were co-incubated at 4-fold excess of Aβ at RT in neutral pH buffer containing ThT. […] For inhibition against IAPP, peptides were co-incubated at 8-fold excess of IAPP at 37° C. in neutral pH buffer containing 20 μM ThT. For inhibition against TTR, peptides were co-incubated at 10-fold excess of monomeric TTR.
The data in FIG. 6 were normalized to ThT fluorescence of the negative (uninhibited) control (black squares). Inhibition traces are ordered vertically according to sequence identity to α1 (see Table 1). Sigmoidal fits to data are included. Controls are identical throughout a single panel, and traces for inhibition samples are colored while the uninhibited aggregation profiles are in black.

Entries after “also recorded” stand apart in the source; their conditions may differ. Where a SMILES comes first, the peptide text is derived from it. [ ]: non-standard residue; d: D form.

As to `CSCC[C@H](NC(=O)[C@@H](CCCCN)NC(=O)[C@H](CS)NC(=O)[C@@H](CC(N)=O)NC(=O)[C@H](CCSC)NC(=O)[C@H](NC(=O)[C@H](Cc1c[nH]c2ccccc12)NC(=O)CNC(=O)[C@H](Cc1ccc(O)cc1)NC(=O)[C@H](Cc1ccc(O)cc1)NC(=O)[C@H](CCC(=O)O)NC(=O)[C@H](CC(N)=O)NC(=O)[C@H](CCSC)NC(=O)[C@@H](Cc1c[nH]c2ccccc12)NC(=O)[C@H](Cc1ccccc1)NC(=O)[C@@H](Cc1ccc(O)cc1)NC(=O)[C@H](CC(N)=O)NC(=O)[C@@H](CCSC)NC(=O)[C@H](CCC(=O)O)NC(=O)CNC(=O)[C@H](CCCNC(=N)N)NC(C)=O)[C@H](C)O)C(=O)NCC(=O)N[C@@H](CCCNC(=N)N)C(N)=O` [α2] (Ac-RGE[dM]N[dY]F[dW]MNEYYGW[dT]M[dN]C[dK]MGR-NH2), the “binding of pre-incubated, toxic oligomer-containing TTR” value (“binding of pre-incubated” for short) in data set [1] was “to a greater extent than the rc and β controls; also recorded: more strongly bound”. Besides, in data set [2], the “binding of pre-aggregated, toxic Aβ” value is given as “bound pre-aggregated, toxic Aβ preferentially”. The solubility entry in data set [3] is “sparingly soluble; also recorded: not soluble enough for NMR”.
For the compound “Aβ: β-amyloid peptide 1-42 (AMYD-002; CPC Scientific)”, in data set [4], the “viability of treated cells” value is given as “less than 50%”.
For the compound `CSCC[C@@H]1NC(=O)[C@@H]([C@H](C)O)NC(=O)[C@H](Cc2c[nH]c3ccccc23)NC(=O)[C@@H](C)NC(=O)[C@H](C)NC(=O)[C@H](C)NC(=O)[C@H](C)NC(=O)[C@H](CC(N)=O)NC(=O)[C@H]([C@@H](C)O)NC(=O)[C@@H](Cc2c[nH]c3ccccc23)NC(=O)[C@H](CO)NC(=O)[C@@H](CCCCN)NC(=O)[C@H](CCC(N)=O)NC(=O)[C@@H](CCC(N)=O)NC(=O)[C@H](CCCCN)NC(=O)[C@H](CC(N)=O)NC(=O)[C@H]2CCCN2C(=O)[C@H](CCC(=O)O)NC(=O)[C@@H](CCCCN)NC(=O)[C@H](CC(C)C)NC(=O)[C@@H](CCC(N)=O)NC1=O` [α3] (cyclo([dQ]Q[dK]S[dW]TNAAA[dA]W[dT]M[dQ]L[dK]E[dP]NK)), the “binding of pre-incubated” value in data set [1] is “to a greater extent than the rc and β controls; also recorded: more strongly bound”. The “binding of pre-aggregated, toxic Aβ” value in data set [2] is “bound pre-aggregated, toxic Aβ preferentially”. Moreover, the “inhibition of the remaining TTR aggregation” value in data set [5] was found to be 77%. Moreover, in data set [5] (peptide co-incubated in excess 20:1 (800 μM) with 40 μM TTR monomer, pH 4.5, 37° C., after 48 hours, relative to TTR alone at low pH, read-out: percentage inhibition of TTR aggregation), the inhibition at 800 µM is 56%. Moreover, in data set [3] (NMR conditions: very high sample concentrations, 50 mM potassium phosphate, 100 mM KCl pH 5.8), the “association state in solution” value is “well-behaved monomers”. Besides, the solubility entry in data set [3] is given as “soluble”. In data set [6], the “time of aggregation at which the inhibitory effect is exerted” value was “approximately 6 hrs”; the “inhibition of Aβ fibril formation” value is listed as 66%; the “inhibition of aggregation of pre-aggregated, toxic Aβ” value is listed as 96%.
Regarding “Ac-RGEmNiSwMNEYSGWtMnLkMGR-NH2 [peptide #1]”, the “binding of native, tetrameric TTR” value in data set [1] was “did not bind”. Further, in data set [1] (listed as α1), the “binding of pre-incubated” value is “to a greater extent than the rc and β controls; also recorded: more strongly bound”. The “binding of pre-aggregated, toxic Aβ” value in data set [2] (listed as α1) is listed as “preferentially bound the pre-aggregated, toxic form of Aβ”. In data set [2] (fresh (0 h) Aβ), the “binding of fresh, monomeric Aβ” value was “did not bind”. In data set [5], the “inhibition of the remaining TTR aggregation” value was 81%. Also, the “percentage inhibition of TTR aggregation” value in data set [5] (peptide co-incubated in excess 20:1 (800 μM) with 40 μM TTR monomer, pH 4.5, 37° C., after 48 hours, relative to TTR alone at low pH) is listed as 72%. The “Inhibits Aggregation and/or binds oligomer?” value in data set [7] is “demonstrate activity and yes”. In data set [6] (4-fold excess of peptide, 25° C. (RT), neutral pH buffer with ThT, listed as α1), the “inhibition of Aβ aggregation at 4-fold excess” value is “essentially completely abolishes aggregation; also recorded: quenches Aβ aggregation”. In addition, in data set [6], the “time of aggregation at which the inhibitory effect is exerted” value is on record as “approximately 6 hrs”; the “inhibition of Aβ fibril formation” value is given as “approximately 87%”; the “inhibition of aggregation of pre-aggregated, toxic Aβ” value is reported as 97%.

The inhibition is the percentage by which the read-out fell short of the control.
